This passage reports IC50 results from patent US7666875B2, “Hydantoin compounds” (Eisai R&D Management Co., Ltd., priority 2005, dated 2010).

For the first assay, the target named is T1, human T-bet (Homo sapiens, UniProt Q9UL17).
T1 construct: expressed in transfected cells; host or cells: engineered HEK cells (HEKT-bet)
T1 sequence (Q9UL17 1-535): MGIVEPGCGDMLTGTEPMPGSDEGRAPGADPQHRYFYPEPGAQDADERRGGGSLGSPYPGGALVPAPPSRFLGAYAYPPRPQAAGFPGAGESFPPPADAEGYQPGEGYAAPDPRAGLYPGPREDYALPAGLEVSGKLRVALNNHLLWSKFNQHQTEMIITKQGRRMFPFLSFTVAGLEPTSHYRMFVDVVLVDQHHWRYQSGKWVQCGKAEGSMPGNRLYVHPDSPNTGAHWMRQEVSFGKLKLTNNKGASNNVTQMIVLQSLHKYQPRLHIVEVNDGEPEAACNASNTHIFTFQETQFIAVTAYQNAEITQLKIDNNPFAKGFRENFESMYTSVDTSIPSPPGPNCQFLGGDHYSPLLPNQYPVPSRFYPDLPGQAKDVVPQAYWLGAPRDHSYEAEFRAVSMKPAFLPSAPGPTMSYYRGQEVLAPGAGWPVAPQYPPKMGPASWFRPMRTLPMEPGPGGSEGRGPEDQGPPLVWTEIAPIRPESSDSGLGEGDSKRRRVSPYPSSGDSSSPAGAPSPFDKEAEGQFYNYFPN
The assay can be described thus: HEKT-bet-luc assay (T-bet dependent luciferase reporter in engineered HEK cells). The class given is cell-based. Conditions: Table 3; HEKT-bet cells, compound 24 hours; IC50 normalized to reference ER-213038; read-out: IC50. The gist of the method:
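HEK cells expressing human T-bet and a T-box element–luciferase reporter were treated with compound for 24 h, then luciferase was read by luminescence. IC50 was scaled between uninhibited signal and maximal inhibition, then normalized to a same-plate reference compound multiplied by its established potency.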
In the case of `COc1cccc(CN2C(=O)N(Cc3cccc(C#N)c3)C3(CCN(Cc4ccccc4)CC3)C2=O)c1` [Example 98], the IC50 amounted to 1100 nM.

The assay is the same for the next values; noted with them: Table 4; HEKT-bet cells, compound 24 hours; IC50 normalized to reference ER-213038; read-out: IC50.
With `CCN1C(=O)N(Cc2ccc3ccccc3c2)C(=O)C12CCN(Cc1cccc(OC)c1)CC2` [Example 214], the 50% inhibitory concentration (IC50) amounted to 344 nM.

As to `COCCN1C(=O)N(C/C=C/c2cccc3ccccc23)C(=O)C12CCN(Cc1ccccc1)CC2` [Example 152], the IC50 stood at 149 nM.

Take `COCCN1C(=O)N(C/C=C/c2ccccc2)C(=O)C12CCN(Cc1cccc3ccccc13)CC2` [Example 131]: the IC50 is 100 nM.

Take `CCN1C(=O)N(Cc2ccc3ccccc3c2)C(=O)C12CCN(Cc1cccc(C)c1)CC2` [Example 272]: the 50% inhibitory concentration (IC50) was found to be 525 nM.

In the case of `COc1cc(CN2CCC3(CC2)C(=O)N(C/C=C/c2ccccc2)C(=O)N3C)cc(OC)c1` [Example 121], the 50% inhibitory concentration (IC50) is 25 nM.

In the case of `COCCN1C(=O)N(CCCc2ccccc2)C(=O)C12CCN(Cc1cccc(OC)c1)CC2` [Example 300], the IC50 was 598 nM.
